From paper PMC12301034, “Design and Synthesis of Boronic Chalcones with Dual Anticancer and Anti-Inflammatory Activity” (Molecules, 2025)
“Also recorded” adds a separate entry of the source.

Experiments:
IL-8 = experiment: Anti-inflammatory assay, IL-8 in LPS-stimulated THP-1 cells (CBA); type: cell-based, human; conditions: 2 and 4 µg/mL, 24 h
Method: (§1) For this assay, THP-1 (BCRJ cód. 0234) cells were cultured in Roswell Park Memorial Institute (RPMI-1640, Sigma-Aldrich; Saint Louis, MO, USA) media supplemented with 2 mM L-glutamine, 1 mM sodium pyruvate, 1.50 g/L of sodium bicarbonate, and 10% fetal bovine serum. For obtaining Macrophage-like cells, 250,000 cells per well were plated in a 24-well cell culture plate. A total of 20 ng/mL of Forbol 12-miristato-13-acetato (PMA) was added to each well, and the cells were incubated for 48 h at 37 °C with 5% CO2. After the 48 h, the wells were washed with 1X PBS, and fresh RPMI-1640 media was added. The cells were then incubated for 24 h at 37 °C and 5% CO2. For the cell’s stimulations, after the 24 h, the well was washed with PBS and fresh RPMI1640 media without fetal bovine serum added. For the positive controls of the assay, 3 wells were stimulated with LPS (1 ng/µL) diluted in the same volume and media used for the drugs stimulation. Two different concentrations (2 and 4 µg/mL) were evaluated for each molecule, which were determined to be non-cytotoxic through a cell viability assay. After a 24 h period, the supernatant was removed and used in the cytokine quantification assay. A kit for inflammatory cytokines, BD® Cytometric Bead Array CBA Human Inflammatory, was employed for this assay, containing the following human cytokines: IL-8, IL-1β, IL-6, and TNF. […]

TNF = experiment: Anti-inflammatory assay, TNF in LPS-stimulated THP-1 cells (CBA); type: cell-based, human
Method: For this assay, THP-1 (BCRJ cód. 0234) cells were cultured in Roswell Park Memorial Institute (RPMI-1640, Sigma-Aldrich; Saint Louis, MO, USA) media supplemented with 2 mM L-glutamine, 1 mM sodium pyruvate, 1.50 g/L of sodium bicarbonate, and 10% fetal bovine serum. For obtaining Macrophage-like cells, 250,000 cells per well were plated in a 24-well cell culture plate. A total of 20 ng/mL of Forbol 12-miristato-13-acetato (PMA) was added to each well, and the cells were incubated for 48 h at 37 °C with 5% CO2. After the 48 h, the wells were washed with 1X PBS, and fresh RPMI-1640 media was added. The cells were then incubated for 24 h at 37 °C and 5% CO2. For the cell’s stimulations, after the 24 h, the well was washed with PBS and fresh RPMI1640 media without fetal bovine serum added. For the positive controls of the assay, 3 wells were stimulated with LPS (1 ng/µL) diluted in the same volume and media used for the drugs stimulation. Two different concentrations (2 and 4 µg/mL) were evaluated for each molecule, which were determined to be non-cytotoxic through a cell viability assay. After a 24 h period, the supernatant was removed and used in the cytokine quantification assay. A kit for inflammatory cytokines, BD® Cytometric Bead Array CBA Human Inflammatory, was employed for this assay, containing the following human cytokines: IL-8, IL-1β, IL-6, and TNF. Standard cytokines were prepared in 9 different concentrations: 1:256, 1:128, 1:64, 1:32, 1:16, 1:8, 1:4, 1:2, and 1:1 (“top standard”). Analysis was performed using a Flow Cytometer FACS Aria Fusion BD (Bioscence, Houston, TX, USA). Data analysis was conducted using Prism software (version 10.4.1).

IL-6 = experiment: Anti-inflammatory assay, IL-6 in LPS-stimulated THP-1 cells (CBA); type: cell-based, human; conditions: 2 and 4 µg/mL, 24 h
Method: as §1

NOK-si cells = experiment: MTT cytotoxicity assay on NOK-si normal oral keratinocytes; type: cell-based; conditions: 24 h incubation
Excerpt: (§2) The SCC-25 (ATCC® CRL-1628™), Detroit-562 (ATCC® CCL-138™), and THP-1 (ATCC® TIB-202™) cells were purchased from Rio de Janeiro Cell Bank (Duque de Caxias, Brazil), and NOK-si was kindly provided by Prof. Carlos Rossa from the School of Dentistry—UNESP. All the cells were cultivated according to standard conditions. Human colorectal adenocarcinoma HCT116 cell lines (ATCC® CCL-247™) expressing p53 and its p53-null isogenic derivative (HCT116 p53^−/−) were provided by B. Vogelstein (The Johns Hopkins Kimmel Cancer Center, Baltimore, MD, USA).
Cells (NOK-si, SCC-25, and Detroit-562) were grown in a DMEM medium (Dulbecco’s Modified Eagle Medium), supplemented according to the needs of each lineage, as recommended by its cell banks, with 2 mM L-glutamine, 10% or 20% fetal bovine serum (FBS), 1% antibiotic–antimycotic solution (5 mg/mL penicillin, 5 mg/mL streptomycin, and 10 mg/mL neomycin), 4.5 g/L of glucose, and 3.7 g/L of sodium bicarbonate (NaHCO3). All cell lines were cultured in flasks at 37 °C in 5% carbon dioxide (CO2) and 95% of relative humidity. The assays were conducted between the third- and the seventh-cell passage, with sub-cultures every 3–4 days to maintain exponential growth. The cell viability was checked using the trypan blue dye exclusion assay for all experiments, where over 95% of the cells were viable at the beginning of the tests. NOK-si, SCC-25, and Detroit-562 were initially thawed and cultured in 25 cm^2 cell culture flasks. Cell growth was monitored using a microscope, and the culture medium was changed periodically. Upon reaching confluency, cell dissociation was achieved by adding 5 mL of trypsin (Sigma-Aldrich, St Louis, MO, USA) and incubating the bottles in a CO2 incubator for 10 min. Subsequently, the cells were transferred to 15 mL Falcon tubes and centrifuged at 2000 rpm for 10 min. Cell counting was performed using a Countess II FL automated cell counter (ThermoFischer, Waltham, MA, USA). The cells were seeded at a density of 30,000 cells per well in 96-well plates. The plates were then incubated at 37 °C in 5% CO2 for 24 h. Following this, test compounds were incubated for another 24 h at 10 different concentrations: 50, 25, 12.5, 6.25, 3.12, 1.56, 0.78, 0.39, 0.19, and 0.097 µg/mL. After the specified time, MTT reagent (3 mg/mL) (Sigma-Aldrich, St Louis, MO, USA) dissolved in phenol-free RPMI 1640 was added and incubated for 4 h. The formed MTT crystals were solubilized using 2-propanol P.A. (Sigma-Aldrich, St Louis, MO, USA) with agitation. Absorbance was read at 562 nm using an EZ Read 400 microplate reader (Biochrom, Cambridge, UK) and ADAP 2.0 Biochrom software (version 2.0). IC50 values and graphs were calculated using Excel and Prism software (version 10.4.1). The MTT assay results were evaluated for normality using the Shapiro–Wilk test, followed by one-way ANOVA with Tukey’s post hoc test at a significance level of 5%.

HCT116 p53^−/− cells = experiment: SRB cytotoxicity assay on HCT116 p53-/- cells; type: cell-based, human; conditions: Homo sapiens, HCT-116, 48 h of treatment
Excerpt: as §2
HCT p53^+/+ and HCT p53^−/− cell lines were seeded in 96-well plates, with a concentration of 5000 cells/well, and allowed to adhere overnight. Afterwards, they were treated with serial dilutions of the compounds for an additional 48 h (compounds were prepared at 30 mM, in DMSO, and tested with a starting concentration of 50μM and 15 μM). Cells passed then through a series of essential steps (fixation with 10% trichloroacetic acid, for 1 h at 4 °C; staining with 0.4% sulforhodamine B (SRB); wash with 1% acetic acid; and solubilization with 10 mM Tris-Base); subsequently, absorbance was measured at 510 nm in a microplate reader (Biotek Instruments Inc., Synergy, MX, USA). IC50 values were determined using GraphPad Prism software, Version 7.0 (La Jolla, CA, USA).

[1] = Partition coefficient (Log P), OECD 117 HPLC method

COc1cccc(C(=O)/C=C/c2cccc(B(O)O)c2)c1 [Compound 5, (E)-(3-(3-(3-methoxyphenyl)-3-oxoprop-1-en-1-yl)phenyl)boronic acid]
reduction of IL-8 levels (IL-8): effectively reduced cytokine levels
TNF levels relative to untreated THP-1 cells (TNF; 7.1 μM): reducing them below those of untreated THP-1 cells
reduction of TNF levels (TNF; 2 and 4 µg/mL, 24 h): significantly reduced; also recorded: pronounced reduction
reduction of IL-6 levels (IL-6): significantly reduced; also recorded: pronounced reduction
NOK-si IC50 (NOK-si cells): 58.9 ± 10.63 µM
CC50 (NOK-si cells; Keratinocyte, read-out: NOK-si IC50): 58.9 µM
IC50 (HCT116 p53^−/− cells): 2.16 ± 0.31 µM
chromatographic logP [1]: 2.92
